Molecular target: cAMP-dependent protein kinase catalytic subunit beta (Homo sapiens) (UniProt P22694)
Experiment: Inhibition of PKAbeta

IC50: > 40 µM
Structure (SMILES): Cc1ccc(C(=O)Nc2ccon2)cc1NC(=O)c1cnn(-c2ccccc2F)c1N [5-amino-1-(2-fluorophenyl)-N-(5-(isoxazol-3-ylcarbamoyl)-2-methylphenyl)-1H-pyrazole-4-carboxamide]
